This is an account of results in US20220323455A1, “FUSED HETEROCYCLIC DERIVATIVES AS ANTIVIRAL AGENTS” (priority 2019, published 2022).

One may read the pEC50 as the EC50 on a negative log10 scale, so that one unit is a factor of ten.

pEC50: −log10 of the molar value.

The first assay deals with HBV. The assay is described as follows: HBV replication inhibition assay (BDNA assay) in HepG2.2.15 cells. The assay is classed as cell-based, Hepatitis B virus. The conditions noted are these: 6 days, encapsidated HBV DNA in supernatant. On the procedure:
HBV replication inhibition by the disclosed compounds were determined in cells infected or transfected with HBV or cells with stably integrated HBV, such as HepG2.2.15 cells (Sells et al. 1987). In this example, HepG2.2.15 cells were maintained in cell culture medium containing 10% fetal bovine serum (FBS), Geneticin, L-glutamine, penicillin and streptomycin. HepG2.2.15 cells were seeded in 96-well plates at a density of 40,000 cells/well and were treated with serially diluted compounds at a final DMSO concentration of 0.5% either alone or in combination by adding drugs in a checker box format. Cells were incubated with compounds for three days, after which medium was removed and fresh medium containing compounds was added to cells and incubated for another three days. At day 6, supernatant was removed and treated with DNase at 37° C. for 60 minutes, followed by enzyme inactivation at 75° C. for 15 minutes. Encapsidated HBV DNA was released from the virions and covalently linked HBV polymerase by incubating in lysis buffer (Affymetrix QS0010) containing 2.5 μg proteinase K at 50° C. for 40 minutes. HBV DNA was denatured by addition of 0.2 M NaOH and detected using a branched DNA (BDNA) QuantiGene assay kit according to manufacturer recommendation (Affymetrix). HBV DNA levels were also quantified using qPCR, based on amplification of encapsidated HBV DNA extraction with QuickExtraction Solution (Epicentre Biotechnologies) and amplification of HBV DNA using HBV specific PCR probes that can hybridize to HBV DNA and a fluorescently labeled probe for quantitation. In addition, cell viability of HepG2.2.15 cells incubated with test compounds alone or in combination was determined by using CellTitre-Glo reagent according to the manufacturer protocol (Promega). The mean background signal from wells containing only culture medium was subtracted from all other samples, and percent inhibition at each compound concentration was calculated by normalizing to signals from HepG2.2.15 cells treated with 0.5% DMSO using equation E1.
% inhibition(DMSOave−Xi)DMSOave×100% E1:
where DMSOave is the mean signal calculated from the wells that were treated with DMSO control (0% inhibition control) and Xi is the signal measured from the individual wells. EC50 values, effective concentrations that achieved 50% inhibitory effect, were determined by non-linear fitting using Graphpad Prism software (San Diego, Calif.) and equation E2.
Y=Ymin+(Ymax−Ymin)/(1+10(Log EC50−X)×HillSlope) E2:
where Y represents percent inhibition values and X represents the logarithm of compound concentrations.
Selected disclosed compounds were assayed in the HBV replication assay (BDNA assay), as described above, and a representative group of these active compounds is shown in Table 5.
Turning to `C[C@@H]1Cc2nn3c(c2CN1C(=O)Nc1ccc(F)c(C(F)(F)F)c1)C(F)(F)CCC(CO)C3` (single isomer, unassigned) [Example 80, (3R,8R*)-11,11-Difluoro-N-(4-fluoro-3-(trifluoromethyl)phenyl)-8-(hydroxymethyl)-3-methyl-3,4,8,9,10,11-hexahydro-1H-pyrido[4′,3′:3,4]pyrazolo[1,5-a]azepine-2(7H)-carboxamide], the pEC50 was 9.00.

Turning to `C#CC1(O)CCC(F)(F)c2c3c(nn2C1)CCN(C(=O)Nc1ccnc(C(F)F)c1F)C3` (single isomer, unassigned) [Example 66, (S*)—N-(2-(Difluoromethyl)-3-fluoropyridin-4-yl)-8-ethynyl-11,11-difluoro-8-hydroxy-3,4,8,9,10,11-hexahydro-1H-pyrido[4′,3′:3,4]pyrazolo[1,5-a]azepine-2(7H)-carboxamide], the pEC50 was 6.83.

In the case of `N#Cc1cc(NC(=O)N2CCc3nn4c(c3C2)C(F)(F)CCC(CO)C4)ccc1F` (single isomer, unassigned) [Example 23, (R*)—N-(3-Cyano-4-fluorophenyl)-11,11-difluoro-8-(hydroxymethyl)-3,4,8,9,10,11-hexahydro-1H-pyrido[4′,3′:3,4]pyrazolo[1,5-a]azepine-2(7H)-carboxamide], the pEC50 was 7.74.

For the compound `C[C@@H]1Cc2nn3c(c2CN1C(=O)Nc1ccc(F)c(C(F)(F)F)c1)C(F)(F)CCC(CO)C3` (single isomer, unassigned) [Example 76, (3R,8S*)-11,11-Difluoro-N-(4-fluoro-3-(trifluoromethyl)phenyl)-8-(hydroxymethyl)-3-methyl-3,4,8,9,10,11-hexahydro-1H-pyrido[4′,3′:3,4]pyrazolo[1,5-a]azepine-2(7H)-carboxamide], the negative logarithm of the EC50 (pEC50) is 8.30.

For the compound `O=C(Nc1ccnc(Br)c1F)N1CCc2nn3c(c2C1)C(F)(F)CCC(F)(CO)C3` (single isomer, unassigned) [Example 48, (R*)—N-(2-Bromo-3-fluoropyridin-4-yl)-8,11,11-trifluoro-8-(hydroxymethyl)-3,4,8,9,10,11-hexahydro-1H-pyrido[4′,3′:3,4]pyrazolo[1,5-a]azepine-2(7H)-carboxamide], the pEC50 is 7.96.

On to `C[C@@H]1Cc2nn3c(c2CN1C(=O)Nc1ccnc(Br)c1F)C(F)(F)CCC(C(C)(C)O)C3` (single isomer, unassigned) [Example 104, (3R,8R*)—N-(2-Bromo-3-fluoropyridin-4-yl)-11,11-difluoro-8-(2-hydroxypropan-2-yl)-3-methyl-3,4,8,9,10,11-hexahydro-1H-pyrido[4′,3′:3,4]pyrazolo[1,5-a]azepine-2(7H)-carboxamide], for which the pEC50 is 7.44.

With `C[C@@H]1Cc2nn3c(c2CN1C(=O)Nc1ccnc(C(F)F)c1F)C(F)(F)CCC(O)(CC#N)C3` (single isomer, unassigned) [Example 92, (3R,8R*)-8-(Cyanomethyl)-N-(2-(difluoromethyl)-3-fluoropyridin-4-yl)-11,11-difluoro-8-hydroxy-3-methyl-3,4,8,9,10,11-hexahydro-1H-pyrido[4′,3′:3,4]pyrazolo[1,5-a]azepine-2(7H)-carboxamide], the pEC50 is 6.72.

Take `O=C(Nc1ccnc(Br)c1F)N1CCc2nn3c(c2C1)C(F)(F)CCC(F)(CO)C3` (single isomer, unassigned) [Example 47, (S*)—N-(2-Bromo-3-fluoropyridin-4-yl)-8,11,11-trifluoro-8-(hydroxymethyl)-3,4,8,9,10,11-hexahydro-1H-pyrido[4′,3′:3,4]pyrazolo[1,5-a]azepine-2(7H)-carboxamide]: the pEC50 was 6.81.

Take `N#Cc1cc(NC(=O)N2CCc3nn4c(c3C2)C(F)(F)CCC(COCC(F)F)C4)ccc1F` (single isomer, unassigned) [Example 29, (R*)—N-(3-Cyano-4-fluorophenyl)-8-((2,2-difluoroethoxy)methyl)-11,11-difluoro-3,4,8,9,10,11-hexahydro-1H-pyrido[4′,3′:3,4]pyrazolo[1,5-a]azepine-2(7H)-carboxamide]: the pEC50 was 7.11.

Regarding `O=C(Nc1ccc(F)c(C(F)(F)F)c1)N1CCc2nn3c(c2C1)C(F)(F)CCC(COCC(F)F)C3` (single isomer, unassigned) [Example 28, (S*)-8-((2,2-Difluoroethoxy)methyl)-11,11-difluoro-N-(4-fluoro-3-(trifluoromethyl)phenyl)-3,4,8,9,10,11-hexahydro-1H-pyrido[4′,3′:3,4]pyrazolo[1,5-a]azepine-2(7H)-carboxamide], the negative logarithm of the EC50 (pEC50) was 7.66.

As for `C#CC1(O)CCC(F)(F)c2c3c(nn2C1)C[C@@H](C)N(C(=O)Nc1ccnc(Br)c1F)C3` (single isomer, unassigned) [Example 99, (3R,8S*)—N-(2-Bromo-3-fluoropyridin-4-yl)-8-ethynyl-11,11-difluoro-8-hydroxy-3-methyl-3,4,8,9,10,11-hexahydro-1H-pyrido[4′,3′:3,4]pyrazolo[1,5-a]azepine-2(7H)-carboxamide], the negative-log EC50 (pEC50) is 6.56.

In the case of `C[C@@H]1Cc2nn3c(c2CN1C(=O)Nc1ccnc(C(F)F)c1F)C(F)(F)CCC(O)(CF)C3` (single isomer, unassigned) [Example 88, (3R,8S*)—N-(2-(Difluoromethyl)-3-fluoropyridin-4-yl)-11,11-difluoro-8-(fluoromethyl)-8-hydroxy-3-methyl-3,4,8,9,10,11-hexahydro-1H-pyrido[4′,3′:3,4]pyrazolo[1,5-a]azepine-2(7H)-carboxamide], the pEC50 was 6.93.

On to `C[C@@H]1Cc2nn3c(c2CN1C(=O)Nc1ccnc(Br)c1F)C(F)(F)CCC(C(C)(C)O)C3` (single isomer, unassigned) [Example 102, (3R,8S*)—N-(2-Bromo-3-fluoropyridin-4-yl)-1111-difluoro-8-(2-hydroxypropan-2-yl)-3-methyl-3,4,8,9,10,11-hexahydro-1H-pyrido[4′,3′:3,4]pyrazolo[1,5-a]azepine-2(7H)-carboxamide], for which the pEC50 is 7.06.

Take `C[C@@H]1Cc2nn3c(c2CN1C(=O)Nc1ccnc(C(F)F)c1F)C(F)(F)CCC(O)(CC#N)C3` (single isomer, unassigned) [Example 90, (3R,8S*)-8-(Cyanomethyl)-N-(2-(difluoromethyl)-3-fluoropyridin-4-yl)-11,11-difluoro-8-hydroxy-3-methyl-3,4,8,9,10,11-hexahydro-1H-pyrido[4′,3′:3,4]pyrazolo[1,5-a]azepine-2(7H)-carboxamide]: the pEC50 was 7.27.

`C[C@@H]1Cc2nn3c(c2CN1C(=O)Nc1ccnc(Br)c1F)C(F)(F)CCC(O)(CC#N)C3` (single isomer, unassigned) [Example 91, (3R,8R*)—N-(2-Bromo-3-fluoropyridin-4-yl)-8-(cyanomethyl)-11,11-difluoro-8-hydroxy-3-methyl-3,4,8,9,10,11-hexahydro-1H-pyrido[4′,3′:3,4]pyrazolo[1,5-a]azepine-2(7H)-carboxamide]: the pEC50 is 7.52.

With `N#Cc1cc(NC(=O)N2CCc3nn4c(c3C2)C(F)(F)CCC(O)(COCC(F)F)C4)ccc1F` (single isomer, unassigned) [Example 31, (R*)—N-(3-Cyano-4-fluorophenyl)-8-((2,2-difluoroethoxy)methyl)-11,11-difluoro-8-hydroxy-3,4,8,9,10,11-hexahydro-1H-pyrido[4′,3′:3,4]pyrazolo[1,5-a]azepine-2(7H)-carboxamide], the pEC50 was 7.38.

Staying with this assay, now noted: Hepatitis B virus, HepG2.2.15, 144 h, 6 days, encapsidated HBV DNA in supernatant.
Consider `C[C@@H]1Cc2nn3c(c2CN1C(=O)Nc1ccc(F)c(C#N)c1)C(F)(F)CCC(CO)C3` (single isomer, unassigned) [Example 79, (3R,8R*)—N-(3-Cyano-4-fluorophenyl)-11,11-difluoro-8-(hydroxymethyl)-3-methyl-3,4,8,9,10,11-hexahydro-1H-pyrido[4′,3′:3,4]pyrazolo[1,5-a]azepine-2(7H)-carboxamide], for which the pEC50 was 9.00.

Take `C#CC1(O)CCC(F)(F)c2c3c(nn2C1)CCN(C(=O)Nc1ccnc(C(F)F)c1F)C3` (single isomer, unassigned) [Example 64, (R*)—N-(2-(Difluoromethyl)-3-fluoropyridin-4-yl)-8-ethynyl-11,11-difluoro-8-hydroxy-3,4,89,10,11-hexahydro-1H-pyrido[4′,3′:3,4]pyrazolo[1,5-a]azepine-2(7H)-carboxamide]: the pEC50 is 6.84.
